In US20020172972A1, “Use of a selectively inactivatable enzyme to digest contaminating nucleic acid” (President and Fellows of Harvard College, priority 2001, published 2002):

Target: T1, micrococcal nuclease (Staphylococcus aureus, UniProt P00644)
T1 construct: purchased Sigma N5386
Assay: inactivation of micrococcal nuclease by EGTA, read out in the real time T7 DNA amplification reaction
Assay type: biochemical
Conditions: 2 mM EGTA added after incubation with 1 mM CaCl2
From the text: Micrococcal nuclease is obtained from Sigma (Sigma catalog number N5386 from Staphylococcus aureus, Foggi strain; 100-300 units/mg). EGTA, Ethylene glycol-bis(2-aminoethyl ether)-N,N,N′,N′-tetraacetic acid, is used as the micrococcal inactivating-agent and is obtained from Sigma (Sigma catalog number E8145. Tetrasodium salt). […]
DNA was quantitated by its ability to stimulate a real time DNA amplification reaction based on the T7 replication system, as described in PCT number WO 00/41524, published Jul. […] In this assay, the time required for the synthesized DNA to reach a designated threshold fluorescence value is proportional to the log of the input concentration of DNA over more than a 10,000,000-fold range of DNA concentration.

Q: `O=C(O)CN(CCOCCOCCN(CC(=O)O)CC(=O)O)CC(=O)O` [EGTA, Ethylene glycol-bis(2-aminoethyl ether)-N,N,N′,N′-tetraacetic acid] was tested. Which “effect of EGTA on micrococcal nuclease activity” value did it give?
A: inactivated
